Read-outs that look alike come from different tables or passages of the source.
Legend:
[1] = tested on: patients with acute ischemic stroke or high-risk TIA; experiment: AXIOMATIC-SSP primary efficacy: composite of new clinical ischemic stroke during treatment and new covert brain infarction detected by MRI on Day 90; assay type: in vivo, human; settings: modified ITT
Experimental: The main objective is to determine the dose-response relationship of milvexian in participants with acute ischemic stroke or TIA who are treated with aspirin and clopidogrel. The main secondary objective is to assess the rate of major bleeding in this population compared with placebo.
The primary efficacy endpoint was the composite of incident ischemic stroke during the treatment period or new covert brain infarction detected by the comparison of 90-day and baseline MRIs. All images were read independently by 2 blinded neuroradiologists, and disagreements were resolved by consensus. […] Clinically overt strokes were determined by site investigators following standardized definitions. Briefly, to qualify as an outcome event, a clinical diagnosis of stroke required a sustained increase in the NIHSS score of ≥3 points that was not explained by other factors, such as infection, or was confirmed by imaging as a new infarct. Covert brain infarction is defined as small ischemic cerebral lesions that are detected on Day 90 MRI in the absence of a symptomatic ischemic stroke event.
All randomized participants will be included in the analysis of the primary endpoint if they have either a symptomatic ischemic stroke event by day 90 or an evaluable MRI at the day 90 visit. Because of the COVID-19 pandemic, all day 90 visit MRIs will be included in the primary analysis, regardless of timing. All other efficacy analyses will be performed on a randomized (intent-to-treat, ITT) population up to day 90.
The population for the primary efficacy endpoint analysis include all randomized participants who have (i) a primary endpoint event (a new ischemic stroke during the study period or a new covert brain infarction detected by MRI on Day 90) or (ii) an evaluable MRI image on Day 90.
The primary efficacy outcome was to assess dose response for the composite of new clinical ischemic stroke during treatment and new covert brain infarction detected by MRI on Day 90 in a modified ITT population (those participants with either a clinical ischemic stroke or a Day 90 MRI).

[2] = tested on: patients undergoing TKR (total knee replacement); settings: 25 mg twice daily; cited from earlier work
[3] = tested on: patients with acute ischemic stroke or high-risk TIA; experiment: AXIOMATIC-SSP composite of new ischemic stroke, MI and all-cause death; assay type: in vivo, human; settings: up to Day 90
Excerpt: Event rates of the composite of new ischemic non-fatal stroke, non-fatal myocardial infarction, or all-cause death.

[4] = tested on: patients with acute ischemic stroke or high-risk TIA
Excerpt: As used herein, the “Bleeding Academic Research Consortium (BARC) Type 3 criteria” are: a. Overt bleeding plus hemoglobin drop of 3 to <5 g/dL (provided hemoglobin drop is related to bleed); transfusion with overt bleeding; b. Overt bleeding plus hemoglobin drop ≥5 g/dL (provided hemoglobin drop is related to bleed); cardiac tamponade; bleeding requiring surgical intervention for control; bleeding requiring IV vasoactive agents; or c. Intracranial hemorrhage confirmed by autopsy, imaging, or lumbar puncture; intraocular bleed compromising vision. See, e.g., Roxana Mehran, et al. Standardized Bleeding Definitions for Cardiovascular Clinical Trials, Circulation.
As used herein, the “Bleeding Academic Research Consortium (BARC) Type 5 criteria” are: a. Probable fatal bleeding; or b. Definite fatal bleeding (overt or autopsy or imaging confirmation). See, e.g., Roxana Mehran, et al. Standardized Bleeding Definitions for Cardiovascular Clinical Trials, Circulation.
As used herein, the “Bleeding Academic Research Consortium (BARC) Type 2 criteria” are: any clinically overt sign of hemorrhage that “is actionable” and requires diagnostic studies, hospitalization, or treatment by a health care professional. See, e.g., Roxana Mehran, et al. Standardized Bleeding Definitions for Cardiovascular Clinical Trials, Circulation.
The secondary endpoint of major bleeding was determined by the occurrence of types 3 and 5 bleeding, according to the Bleeding Academic Research Consortium (BARC) classification system. Roxana Mehran, et al. Standardized Bleeding Definitions for Cardiovascular Clinical Trials, Circulation. […] Bleeding was additionally evaluated utilizing International Society on Thrombosis and Haemostasis (ISTH) and PLATelet inhibition and patient Outcomes (PLATO) criteria.
The population for safety analysis includes all participants who received at least one dose of study medication. This is the primary population used in safety analysis and is analyzed according to the treatment assigned at randomization.
Analysis of all safety data will be performed on participants treated with ≥1 dose of double-blind drug. The proportion of participants with major bleeding events (BARC types 3 and 5), as well as BARC-, ISTH-, and PLATO-defined criteria, will be summarized by treatment group. Additional summaries will include characteristics of cerebral microbleeds, hemorrhagic transformation of ischemic stroke, and asymptomatic intracranial bleeding. Adverse event and laboratory data, as well as PK and PD data, will be summarized.

C[C@@H]1CCC[C@H](n2cnc(-c3cc(Cl)ccc3-n3cc(Cl)nn3)cc2=O)c2cc(ccn2)-c2c(cnn2C(F)F)NC1=O [milvexian, (5R,9S)-9-(4-(5-chloro-2-(4-chloro-1H-1,2,3-triazol-1-yl)phenyl)-6-oxopyrimidin-1(6H)-yl)-21-(difluoromethyl)-5-methyl-21H-3-aza-1(4,2)-pyridina-2(5,4)-pyrazolacyclonaphan-4-one]
incidence rate (n/N %) of composite of new clinical ischemic stroke and new covert brain infarction detected by MRI on Day 90 ([1]; 25 mg once daily): 16.2% | incidence rate (n/N %) of composite of new clinical ischemic stroke and new covert brain infarction detected by MRI on Day 90 ([1]; 25 mg twice daily): 18.5% | incidence rate (n/N %) of composite of new clinical ischemic stroke and new covert brain infarction detected by MRI on Day 90 ([1]; 50 mg twice daily): 14.1% | incidence rate (n/N %) of composite of new clinical ischemic stroke and new covert brain infarction detected by MRI on Day 90 ([1]; 100 mg twice daily): 14.7% | incidence rate (n/N %) of composite of new clinical ischemic stroke and new covert brain infarction detected by MRI on Day 90 ([1]; 200 mg twice daily): 16.4% | efficacy versus enoxaparin in AXIOMATIC-TKR [2]: comparable efficacy to enoxaparin | All Cause Death (%) ([3]; 25 mg BID, N = 318): (0.9) % | All Cause Death, subjects n ([3]; 25 mg BID, N = 318): 3 | Myocardial Infarction (%) ([3]; 25 mg BID, N = 318): (0.6) % | Myocardial Infarction, subjects n ([3]; 25 mg BID, N = 318): 2 | New Ischemic Stroke, MI And All Cause Death: Subjects With Event (%) ([3]; 25 mg BID, N = 318): (4.7) % | All Cause Death (%) ([3]; 25 mg QD, N = 328): (0.9) % | All Cause Death, subjects n ([3]; 25 mg QD, N = 328): 3 | Myocardial Infarction (%) ([3]; 25 mg QD, N = 328): (0.3) % | Myocardial Infarction, subjects n ([3]; 25 mg QD, N = 328): 1 | New Ischemic Stroke, MI And All Cause Death: Subjects With Event (%) ([3]; 25 mg QD, N = 328): (5.2) % | All Cause Death (%) ([3]; 50 mg BID, N = 328): (0.6) % | All Cause Death, subjects n ([3]; 50 mg BID, N = 328): 2 | Myocardial Infarction (%) ([3]; 50 mg BID, N = 328): (0.3) % | Myocardial Infarction, subjects n ([3]; 50 mg BID, N = 328): 1 | New Ischemic Stroke, MI And All Cause Death: Subjects With Event (%) ([3]; 50 mg BID, N = 328): (4.9) % | All Cause Death (%) ([3]; 100 mg BID, N = 310): (1.6) % | All Cause Death, subjects n ([3]; 100 mg BID, N = 310): 5 | Myocardial Infarction (%) ([3]; 100 mg BID, N = 310): (0.6) % | Myocardial Infarction, subjects n ([3]; 100 mg BID, N = 310): 2 | New Ischemic Stroke, MI And All Cause Death: Subjects With Event (%) ([3]; 100 mg BID, N = 310): (5.2) % | All Cause Death, subjects n ([3]; 200 mg BID, N = 351): 4 | Myocardial Infarction, subjects n ([3]; 200 mg BID, N = 351): 3 | BARC Type 5 (fatal) bleeding, subjects n ([4]; 25 mg BID, N = 313): 0 | BARC Type 5 bleeding, Incidence Rate (n/N %) ([4]; 25 mg BID, N = 313): (0) % | BARC Type 5 (fatal) bleeding, subjects n ([4]; 25 mg QD, N = 325): 0 | BARC Type 5 bleeding, Incidence Rate (n/N %) ([4]; 25 mg QD, N = 325): (0) % | BARC Type 5 (fatal) bleeding, subjects n ([4]; 50 mg BID, N = 325): 0 | BARC Type 5 bleeding, Incidence Rate (n/N %) ([4]; 50 mg BID, N = 325): (0) % | BARC Type 5 (fatal) bleeding, subjects n ([4]; 100 mg BID, N = 306): 0 | BARC Type 5 bleeding, Incidence Rate (n/N %) ([4]; 100 mg BID, N = 306): (0) % | BARC Type 5 (fatal) bleeding, subjects n ([4]; 200 mg BID, N = 344): 0 | BARC Type 5 bleeding, Incidence Rate (n/N %) ([4]; 200 mg BID, N = 344): (0) % | fatal bleeding ([4]; all treatment arms): No fatal bleeding | incidence rate (n/N %) of bleeding endpoint (BARC Type 3 and 5) ([4]; human, in vivo, 90 days): 0.6-1.6%

— patent US20260034130A1 (priority 2022, published 2026)
